Here are results for ten molecules from patent US20130324597A1, “PHARMACEUTICAL COMPOSITION COMPRISING TRANS-[…] AND ITS USE IN THE TREATMENT OF INFECTIONS” (priority 2010, published 2013).

Data set [1] relates to VIH. Nature of the data set: Activity on VIH (survival of lymphoid cells T4, P24 dosage). The arrangement: unit of the concentration uncertain. Type of data set: cell-based.
For data set [2], the system named is E. coli. Kind of data set: Treatment of infected mice. The class given is in vivo. To be noted: E. coli challenge, 7 days observation; reference antibiotic, dose not given. The method, then: (§1) The test is performed on Balb/c mice aged 10 to 12 weeks.
(§2) They are infected by intraperitoneal injection of 4.10^7 Staphylococcus aureus, methicilline resistant, in a growing phase or with E. coli.

Data set [3] deals with Staphylococcus And Enterococcus. Nature of the data set: MIC of pure components in Mueller Hinton gelose. Type of data set: cell-based. To be noted: Staphylococcus And Enterococcus n = 14. An excerpt:
(§3) Following a method allowing the dissolution of the active blend in a Mueller Hinton gelose the MIC has been measured with pure components of the active blends 1 to 9.

Data set [4] relates to Enterobacteriaceae. Nature of the data set: MIC of pure components in Mueller Hinton gelose. The class given is cell-based. To be noted: Enterobacteriaceae n = 13.
Source text: as §3

Data set [5] concerns Other Gram - rods. Nature of the data set: MIC of pure components in Mueller Hinton gelose. The class given is cell-based. To be noted: Other Gram - rods n = 15.
Source text: as §3

In data set [6] the test system is all the strains. Nature of the data set: MIC of pure components, all strains of Table 9. Type of data set: cell-based. To be noted: strains of Table 9, tested concentrations.
Source text: as §3

Data set [7] concerns A baumanii. Kind of data set: MIC in Mueller Hinton gelose. Type of data set: cell-based, Acinetobacter baumanii. To be noted: A baumanii 09010.
Source text: (§4) Following a method allowing the dissolution of the active blend in a Mueller Hinton gelose the following MIC has been measured with pure trans-cinnamaldehyde (CNM) and with the active blends 1 to 8 disclosed in table 1.
as §3

The subject of data set [8] is P. aeruginosa. Kind of data set: MIC in Mueller Hinton gelose. The class given is cell-based, Pseudomonas aeruginosa.
Source text: as §4, §3

Data set [9] relates to E. coli. Nature of the data set: MIC in Mueller Hinton gelose. Type of data set: cell-based, Escherichia coli.
Source text: as §4, §3

Data set [10] deals with Enterobacteria. Kind of data set: Killing-curves, log reduction time. Type of data set: cell-based. To be noted: at MIC × 4. The text has this:
(§5) Results are expressed in minutes necessary to reduce bacterial counts by 1 log.

For data set [11], the system named is All strains (60 strains). Kind of data set: Killing-curves, log reduction time. Type of data set: cell-based. To be noted: at MIC × 4.
Source text: as §5

Data set [12] has as its system Other gram−. Nature of the data set: Killing-curves, log reduction time. To be noted: at MIC × 4. The class given is cell-based.
Source text: as §5

Data set [13] concerns Cocci G+. Nature of the data set: Killing-curves, log reduction time. Type of data set: cell-based. To be noted: at MIC × 4.
Source text: as §5

In data set [14] the test system is Enterococcus. Nature of the data set: MIC in Mueller Hinton gelose. The class given is cell-based, Enterococcus sp.
Source text: as §4, §3

The subject of data set [15] is MRSA. To be noted: bibliographic data on the main compound; cited from earlier work.
Data set [16] deals with E. faecium. Nature of the data set: MIC in Mueller Hinton gelose. Type of data set: cell-based, Enterococcus faecium.
Source text: as §4, §3

Data set [17] deals with E. aerogenes. Nature of the data set: MIC in Mueller Hinton gelose. The class given is cell-based. To be noted: Enterobacter aerogenes 09004.
Source text: as §4, §3

Data set [18] concerns Staphylococcus. Kind of data set: MIC in Mueller Hinton gelose. The class given is cell-based.
Source text: as §4, §3

In data set [19] the test system is Pseudomonas. Kind of data set: MIC in Mueller Hinton gelose. The class given is cell-based.
Source text: as §4, §3

For data set [20], the system named is Staphylococcus aureus, methicilline resistant. Kind of data set: Treatment of infected mice. Type of data set: in vivo, Balb/c mice. To be noted: MRSA challenge, 10 days observation; reference antibiotic, dose not given. The method, then:
as §1, §2

The mark [21] stands for this setting: concentration 0.0005 (unit uncertain).
Setting [22] is: concentration 0.005 (unit uncertain).
[23] abbreviates: concentration 0.05 (unit uncertain).
Where [24] appears, read: concentration 0.1 (unit uncertain).
The mark [25] stands for this setting: concentration 0.5 (unit uncertain).
Setting [26] is: concentration 5 (unit uncertain).

Regarding `Cc1cn([C@H]2C[C@H](N=[N+]=[N-])[C@@H](CO)O2)c(=O)[nH]c1=O` [AZT], the “% Survival (lymphoid cells T4)” value came out at 10.0% in data set [1] (setting [21]); 7.0% in data set [1] (setting [22]); 36.0% in data set [1] (setting [23]); 86.0% in data set [1] (setting [24]); 97.8% in data set [1] (setting [25]); 108.7% in [1] (setting [26]). The “Dosage P24 (% inhibition vs T+ of the plate)” value is 39% in data set [1] (setting [21]); 48% in data set [1] (setting [22]); 80% in data set [1] (setting [23]); 99% in data set [1] (setting [24]); 100% in [1] (setting [25]); 100% in data set [1] (setting [26]).
In the case of `CC1(C)S[C@@H]2[C@H](NC(=O)[C@H](N)c3ccc(O)cc3)C(=O)N2[C@H]1C(=O)O` [Amoxicillin], in [2], the “% survival” value is on record as 100%; the Final score is reported as 6; the “Final score, % vs placebo” value was 10.70%; the Total health score came to 678. In data set [2], the “Total health score, % vs placebo” value is 38.93%; the Total weight is on record as 849; the “Total weight, % vs placebo” value was 23.58%.
Regarding `O=C(OCc1ccccc1)c1ccccc1` [Benzyl benzoate, benzyl benzoate], the MIC Range in [3], in data set [4] and in [5] was above 10000 µg/mL each time.
Turning to `O=C/C=C/c1ccccc1` [CNM, trans-cinnamaldehyde], the “activity / spectrum in words” value in data set [6] was “highly effective on all the strains”. For the same molecule, the MIC turned out to be 0.016% in data set [7]; 0.063% in [8] (PS aeruginosa 09007); 0.031% in data set [8] (PS aeruginosa ATCC); 0.016% in data set [8] (Ps aeruginosa 09008); 0.016% in data set [9] (E. coli 8137); 0.016% in data set [9] (E. coli 8138). In addition, the MIC is on record as 0.016% in data set [9] (E. coli 8141); 0.016% in [9] (E. coli 8142); 0.031% in [9] (E. coli 8150); 0.031% in [9] (E. coli 8151); 0.031% in [9] (E. coli 8154); 0.031% in data set [9] (E. coli 8155). The MIC in data set [9] (E. coli 8156) was determined as 0.031%; in data set [9] (E. coli 8157) it was 0.031%; in data set [9] (E. coli 09003) it was 0.063%; in [9] (E. coli ATCC 25922), 0.015%; in data set [14] (Enterococcus 8152), 0.031%; in [14] (Enterococcus 8153), 0.031%. Besides, the MIC in data set [16] (Enterococcus faecium 09001) amounted to 0.031%; in [16] (Enterococcus faecium 09002), 0.031%; in data set [17], 0.063%; in [18] (Staphylococcus 8143), 0.031%; in data set [18] (Staphylococcus 8146), 0.031%; in data set [18] (Staphylococcus 8147), 0.031%. In addition, the MIC is on record as 0.031% in [18] (Staphylococcus 8148); 0.016% in data set [18] (Staphylococcus 8149); 0.008% in data set [18] (Staphylococcus 8237); 0.031% in [18] (Staphylococcus 8238); 0.031% in data set [18] (Staphylococcus 8239); 0.031% in [18] (Staphylococcus 8240). In addition, the MIC turned out to be 0.031% in data set [18] (Staphylococcus 8241); 0.063% in data set [19] (Pseudomonas 8127); 0.063% in [19] (Pseudomonas 8128); 0.063% in data set [19] (Pseudomonas 8129*); 0.125% in data set [19] (Pseudomonas 8130*); 0.125% in data set [19] (Pseudomonas 8131*). The MIC is reported as 0.125% in [19] (Pseudomonas 8132*); 0.125% in [19] (Pseudomonas 8133); 0.016% in [19] (Pseudomonas 8134); 0.03% in data set [19] (Pseudomonas 8135*); 0.016% in [19] (Pseudomonas 8136*). The MIC 50 in data set [3] is 150 µg/mL; in data set [4], 150 µg/mL; in [5], 600 µg/mL. Moreover, the MIC 90 in data set [3] was 300 µg/mL; in data set [4], 600 µg/mL; in [5] it was 1250 µg/mL. Moreover, the “Mean Log reduction time” value in [10] was determined as 72 min; in [11], 111 min; in data set [12], 95 min; in data set [13], 195 min. Further, the “elimination, bibliographic data” value in data set [15] is listed as 1.7 h.
Take `C=C1CC/C=C(\C)CC[C@@H]2[C@@H]1CC2(C)C` [Caryophyllene, beta-caryophyllene]: the “activity / spectrum in words” value in data set [6] is “narrow”. Further, the MIC 50 in data set [3], in data set [4] and in data set [5] was above 10000 µg/mL throughout. In addition, the MIC 90 in data set [3], in [4] and in data set [5] was above 10000 µg/mL throughout. The MIC Range in data set [4] and in data set [5] was above 10000 µg/mL each time.
For the molecule `CC12CCC(CC1)C(C)(C)O2` [Cineole, cineole], the MIC Range in [3], in data set [4] and in data set [5] was above 10000 µg/mL each time.
In the case of `CC(=O)OCC=Cc1ccccc1` [Cinnamyl acetate, cinnamyl acetate], the “activity / spectrum in words” value in data set [6] is reported as “intermediate”. Besides, in [3], the MIC 50 was above 10000 µg/mL and the MIC 90 is above 10000 µg/mL. Moreover, in data set [4], the MIC 50 is above 10000 µg/mL, the MIC 90 was above 10000 µg/mL and the MIC Range is above 10000 µg/mL. Moreover, in data set [5], the MIC 50 was above 10000 µg/mL and the MIC 90 is above 10000 µg/mL.
As to `C=CC(C)(O)CCC=C(C)C` (centres unmarked) [Linalool, linalool], in [6], the “activity / spectrum in words” value is on record as “wide”. Besides, the MIC 50 in data set [3] was 2500 µg/mL; in [4], 2500 µg/mL; in [5], above 10000 µg/mL. For the same molecule, the results for the MIC 90 in data set [3], in data set [4] and in data set [5] were 10000 µg/mL, 10000 µg/mL and above 10000 µg/mL, respectively.
As for `COc1ccccc1/C=C/C=O` [Trans-methoxycinnamaldehyde, trans-2-methoxycinnamaldehyde], the MIC Range in data set [3], in data set [4] and in [5] was above 10000 µg/mL each time.
As to `CN[C@H](CC(C)C)C(=O)N[C@H]1C(=O)N[C@@H](CC(N)=O)C(=O)N[C@H]2C(=O)N[C@H]3C(=O)N[C@H](C(=O)N[C@H](C(=O)O)c4cc(O)cc(O)c4-c4cc3ccc4O)[C@H](O)c3ccc(c(Cl)c3)Oc3cc2cc(c3O[C@@H]2O[C@H](CO)[C@@H](O)[C@H](O)[C@H]2O[C@H]2C[C@](C)(N)[C@H](O)[C@H](C)O2)Oc2ccc(cc2Cl)[C@H]1O` [Vancomicin], in [20], the “% survival” value is 100%; the Final score is listed as 10; the “Final score, % vs placebo” value stood at 42.86%; the Total weight amounted to 1110. Also, in data set [20], the “Total weight, % vs placebo” value is reported as 0.63%.
